The source of these data is US20220267321A1, “AZAINDOLE PYRAZOLE COMPOUNDS AS CDK9 INHIBITORS” (MEDSHINE DISCOVERY INC., priority 2019, published 2022).

One data set addresses T1, CDK1/CyclinB1 (Homo sapiens, UniProt P06493).
T1 construct: purchased Promega
The data set can be described thus: In vitro CDK1/CyclinB1 enzyme activity test (ADP-Glo). The data set is classed as biochemical. The note with it: 25 μM ATP, 25° C., 120 minutes. How it is done:
CDK1/CyclinB1 kinase detection kit was purchased from Promega. Nivo multi-label analyzer (PerkinElmer).
(§1) Using the kinase buffer in the kit to dilute the enzyme, substrate, adenosine triphosphate and inhibitor.
The compound to be tested was diluted 5-fold to the 8th concentration with a discharge gun, that is, diluted from 50 μM to 0.65 nM, with a DMSO concentration of 5%, and replicated. Add 1 μL of each inhibitor concentration gradient, 2 μL CDK1/CyclinB1 enzyme (12.5 ng), 2 μL mixture of substrate and ATP (25 μM adenosine triphosphate, 0.2 μg/μL substrate) into the microplate, and the final concentration gradient of the compound is 10 μM dilute to 0.13 nM. The reaction system was placed at 25° C. for 120 minutes. After the reaction, add 5 μL of ADP-Glo reagent to each well, and continue the reaction at 25° C. for 40 minutes. After the reaction, add 10 μL of kinase detection reagent to each well. After reacting at 25° C. for 30 minutes, use a multi-label analyzer to read chemiluminescence. The integration time is 0.5 seconds.
Table 1 provides the CDK1/CyclinB1 enzymatic inhibitory activity of the compounds of the present invention.
(ADP-Glo turns the ADP formed in a reaction into a luminescent signal.)

A further data set deals with T2, CDK2/CyclinE1 (Homo sapiens, UniProt P24941).
T2 construct: purchased Promega
The data set can be described thus: In vitro CDK2/CyclinE1 enzyme activity test (ADP-Glo). The format is biochemical. As to conditions: 150 μM ATP, 25° C., 60 minutes. How it is done:
CDK2/CyclinE1 kinase detection kit was purchased from Promega. Nivo multi-label analyzer (PerkinElmer).
as §1
The compound to be tested was diluted 5-fold to the 8th concentration with a discharge gun, that is, diluted from 50 μM to 0.65 nM, with a DMSO concentration of 5%, and replicated. Add 1 μL of each inhibitor concentration gradient, 2 μL CDK2/CyclinE1 enzyme (2 ng), 2 μL mixture of substrate and ATP (150 μM adenosine triphosphate, 0.1 μg/μL substrate) to the microplate, and the final concentration gradient of the compound is 10 μM dilution to 0.13 nM. The reaction system was placed at 25° C. for 60 minutes. After the reaction, add 5 μL of ADP-Glo reagent to each well, and continue the reaction at 25° C. for 40 minutes. After the reaction, add 10 μL of kinase detection reagent to each well. After reacting at 25° C. for 30 minutes, use a multi-label analyzer to read chemiluminescence. The integration time is 0.5 seconds.
Table 1 provides the CDK2/CyclinE1 enzymatic inhibitory activity of the compounds of the present invention.

The test system of another data set is MV-4-11 cells. The data set can be described thus: In vitro cell activity test, MV-4-11 proliferation (CellTiter-Glo). The format is cell-based. The note with it: Homo sapiens, MV4-11, 72 h, 3 days incubation. How it is done:
IMDM medium, fetal bovine serum, penicillin/streptomycin antibiotics were purchased from Promega (Madison, Wis.). The MV-4-11 cell line was purchased from the Cell Bank of the Chinese Academy of Sciences. Nivo multi-label analyzer (PerkinElmer).
Plant MV-4-11 cells in a white 96-well plate, 80 μL of cell suspension per well, which contains 6000 MV-4-11 cells. The cell plate was cultured overnight in a carbon dioxide incubator.
The compound to be tested was diluted 5-fold to the 8th concentration with a discharge gun, that is, diluted from 2 mM to 26 nM, and replicated. Add 78 μL of culture medium to the middle plate, and then transfer 2 μL of each well of the gradient dilution compound to the middle plate according to the corresponding position, and transfer 20 μL of each well to the cell plate after mixing. The final concentration of the compound is 10 μM to 0.13 nM. The cell plate was placed in a carbon dioxide incubator for 3 days.
Add 25 μL of Promega CellTiter-Glo reagent per well to the cell plate and incubate at room temperature for 10 minutes to stabilize the luminescence signal. Use PerkinElmer Nivo multi-label analyzer to read.
For orientation: In ATP-based viability assays light output follows the ATP content of the culture.

Data set [1] concerns MV4-11 acute myeloid leukemia xenograft (CDX). Nature of the data set: In vivo drug efficacy study (1), MV4-11 CDX model. As to conditions: 15 mg/kg injected weekly; for Tumor Volume Day 0: Day 0 (start of administration). How it is done:
In vivo drug efficacy experiments were performed on human-derived tumor cell line-based xenograft (CDX) BALB/c nude mice derived from patients with MV4-11 acute myeloid leukemia subcutaneously implanted.
Female 6- to 8-week old BALB/c nude mice which weighed about 18-22 g were kept in separate ventilated cages (3 mice per cage) in a special pathogen-free environment. All the cages, matts and water were disinfected before use. All the animals had free access to standard certified commercial laboratory diet. A total of 30 mice were purchased from Shanghai Lingchang biological science and technology Co., LTD. for study. Each mouse was subcutaneously implanted with tumor cells in the right next abdomen (10×10^6 in 0.2 mL of phosphate buffer) for tumor growth. The administration started when the average tumor volume reached approximately 110 cubic millimeters. The test compound was injected weekly at a dose of 15 mg/kg. The tumor volumes were measured with a two-dimensional caliper twice a week, and the volumes were expressed in cubic millimeters and calculated by the formula: V=0.5a×b^2, where a and b were the major diameter and the minor diameter of the tumor, respectively. Antitumor efficacy was determined by dividing an average increase of the tumor volumes of the animals treated with the compounds by an average increase of the tumor volumes of the untreated animals.

For data set [2] the following is noted: clinical research, background; cited from earlier work.
For data set [3] the following is noted: background; cited from earlier work.

In general, IC50 refers to the concentration needed to halve the response being measured. A high value points to weaker potency.

T1 sequence (P06493 whole entry): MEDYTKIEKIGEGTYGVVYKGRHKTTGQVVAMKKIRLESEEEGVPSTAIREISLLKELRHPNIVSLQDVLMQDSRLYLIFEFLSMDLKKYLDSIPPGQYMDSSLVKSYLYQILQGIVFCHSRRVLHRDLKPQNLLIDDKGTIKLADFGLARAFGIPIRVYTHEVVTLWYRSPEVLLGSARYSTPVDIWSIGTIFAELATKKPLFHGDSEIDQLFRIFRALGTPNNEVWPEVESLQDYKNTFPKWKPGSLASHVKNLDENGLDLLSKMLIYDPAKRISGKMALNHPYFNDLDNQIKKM
T1 sequence (P14635 whole entry partner): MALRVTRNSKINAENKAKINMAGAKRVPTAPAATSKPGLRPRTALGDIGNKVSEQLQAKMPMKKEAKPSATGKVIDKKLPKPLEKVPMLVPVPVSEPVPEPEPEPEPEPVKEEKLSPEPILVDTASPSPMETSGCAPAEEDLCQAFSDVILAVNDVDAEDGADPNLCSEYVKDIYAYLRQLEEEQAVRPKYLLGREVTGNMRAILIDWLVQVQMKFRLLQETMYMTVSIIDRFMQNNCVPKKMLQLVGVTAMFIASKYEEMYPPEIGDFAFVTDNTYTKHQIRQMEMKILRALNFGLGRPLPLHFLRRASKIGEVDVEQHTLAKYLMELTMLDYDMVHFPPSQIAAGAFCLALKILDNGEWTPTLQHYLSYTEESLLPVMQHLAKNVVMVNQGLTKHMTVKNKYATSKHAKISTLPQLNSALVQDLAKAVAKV

Regarding `COc1cc(F)ccc1-c1cc(Nc2cc(CS(C)(=N)=O)ccn2)ncc1F` (centres unmarked) [BAY1251152], the IC50 on CDK1/CyclinB1 was determined as 300 nM. Moreover, on CDK2/CyclinE1, half-maximal inhibition (IC50) was put at 193 nM. Besides, half-maximal inhibition in the data set on MV-4-11 cells (IC50) required 28.2 nM. In addition, in data set [1], the “Animals' Drug Tolerance” value is 5/6 mouse, the “Tumor Volume Day 0” value is 110 mm^3, the “Tumor Volume Day 7” value was found to be 107 mm^3 and the “Tumor Volume Day 17” value is 83 mm^3. Further, in data set [1], the “Tumor Volume Day 28” value amounted to 426 mm^3. Also, the “clinically most important grade 3/4 and dose-limiting adverse side effect” value in data set [2] is “neutropenia”.
The compound `CC(=O)N[C@@H]1CCC[C@H](C(=O)Nc2cc(-c3cnn4c3CC(C)(C)C4)c(Cl)cn2)C1` [AZD4573] gave an IC50 on CDK1/CyclinB1 of 2 nM. In addition, at CDK2/CyclinE1, the IC50 is 1 nM. In data set [1], the “Animals' Drug Tolerance” value is on record as “Well”, the “Tumor Volume Day 0” value is listed as 110 mm^3, the “Tumor Volume Day 7” value was determined as 173 mm^3 and the “Tumor Volume Day 17” value was found to be 262 mm^3. The “Tumor Volume Day 28” value in data set [1] was 975 mm^3. Besides, in data set [3], the “metabolism (in words)” value is reported as “not good”.
